Where a name gives a salt, the structure may show the parent alone.
Columns and labels:
peripheral lymphocytes = assay: Evaluation of peripheral blood lymphocyte reduction; assay type: in vivo; conditions: po, 6 h, rat, orally administered, six hours after the administration, read-out: ED50 (dosage required to reduce number of lymphocytes by 50%)
Method: Evaluation of Peripheral Blood Lymphocyte Reduction
The compound or a solvent is orally administered to a rat. 3, 6, 24, 48 or 72 hours after the administration of the compounds, blood is drawn from the rat tail. Hematological testis carried out for the whole blood sample. Using an automated analyzer (Sysmex 2000Xi), total number of peripheral lymphocytes is obtained. By having at least three animals per group, activity of the compound on the total number of peripheral lymphocytes was evaluated. Lymphocyte reduction caused by the compound administration was evaluated via comparison with an animal group which had received the solvent only. Specifically, average number of the lymphocytes for the solvent administered group was taken as 100%, and from average number of the lymphocytes for the compound administered group, control % value was calculated. Further, in view of the dosage of the compound and the dosage of the compound that is required to reduce number of lymphocytes by 50% six hours after the administration compared to the control % value was calculated as ED50.

[1] = reported in Non-Patent Document 1; cited from earlier work
[2] = rats, intravenous administration, Non-Patent Document 2; cited from earlier work
human S1P1 = target: T1, human S1P1 (Homo sapiens, UniProt P21453); assay: 35S-GTPγS binding assay using a membrane prepared from CHO cells which stably express S1P1 receptor; assay type: biochemical; conditions: CHO cell membrane fraction stably expressing human S1P1, read-out: EC50 (concentration of agonist required to give 50% of its own maximum increase ratio), human S1P1
T1 construct: expressed in transfected cells
T1 sequence (P21453 whole entry): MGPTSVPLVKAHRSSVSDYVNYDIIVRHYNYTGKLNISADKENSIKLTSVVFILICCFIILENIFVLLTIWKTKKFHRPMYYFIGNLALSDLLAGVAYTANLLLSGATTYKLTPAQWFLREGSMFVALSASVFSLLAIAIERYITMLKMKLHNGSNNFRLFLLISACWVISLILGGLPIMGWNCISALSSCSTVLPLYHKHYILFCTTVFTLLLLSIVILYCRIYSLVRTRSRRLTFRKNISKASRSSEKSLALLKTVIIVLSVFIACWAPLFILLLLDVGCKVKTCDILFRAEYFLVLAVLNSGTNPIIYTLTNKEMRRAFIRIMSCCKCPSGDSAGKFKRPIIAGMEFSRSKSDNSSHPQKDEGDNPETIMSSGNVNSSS
Method: ^35S-GTPγS Binding Assay Using a Membrane Prepared from CHO Cells Which Stably Express S1P1 Receptor
Functional activation of human S1P1 by the compounds was determined based on quantification of ^35S-GTPγS binding to G protein due to the receptor activation, by using a cell membrane fraction prepared from CHO cells in which human S1P1 are stably expressed. As for human S1P1, the above described human S1P1 was used. Membrane proteins as prepared and various concentrations of sphingosine-1-phosphate or the compounds diluted in a solvent such as DMSO were incubated in a solution comprising 20 mM Tris-Cl (pH 7.5), 100 mM NaCl, 10 mM MgCl2, […] (Upstate), 0.1% BSA (fatty acid free, Sigma) and 25 pM ^35S-GTPγS (specific activity 1250 Ci/mmol) in 96 well microtiter plates. Binding was performed by incubating them for 90 minutes at room temperature, and then terminated by harvesting the membrane proteins onto multiscreeen harvest FB plates (Millipore) using Millipore multiscreen separation system. After drying the harvest plates at least for 12 hours, 25 μl of MicroScint-O (Perkin Elmer) was added to each well and radioactivity was measured using a Top Counter.
Having the value measured for the well to which a solvent has been added as a control value, the agonist activity of the compounds was determined by comparing the increase in the well to which a test compound has been added to the control value, and therefore an increase ratio for each concentration of the compounds was obtained. EC50 values were culcurated as defined to be the concentration of agonist required to give 50% of its own maximum increase ratio.

[3] = tested on: rat having arthritis caused by an adjuvant; assay: Animal model having arthritis caused by an adjuvant; assay type: in vivo; conditions: female Lewis rat, oral once a day, twenty-one days after the administration
Method: Animal Model Having Arthritis Caused by an Adjuvant
Seven-week old female Lewis rat is used for the evaluation. After measuring the volume of the hind leg of the rat, M. tuberculosis H37 RA (manufactured by Difco, 500 μg/100 μl) which has been suspended in fluid paraffin as an adjuvant, is subcutaneously injected in the sole of rear left foot of the rat to prepare a rat having arthritis caused by an adjuvant. The compounds to be tested are suspended in 1% methyl cellulose solution, and force the animal to be orally administered with the suspension into the stomach by using a sonde, once a day for twenty-one days from the start of the adjuvant injection. Evaluation of arthritis is carried out by measuring volume of the foot of each animal by using a plethysmometer (manufactured by UGO BASILE). By comparing the value for the group administered with the compounds of the present invention with the solvent administered group, effect of the compounds is determined. Specifically, the swelling of the sole of the rear left foot of the solvent administered group is taken as 100%, and in view of the swelling of the animals of the compound administered group, control % values are calculated. […]

Work on `Cc1cc(-c2nc(-c3ccc4c(c3)CCC4NC3CC(C(=O)O)C3)no2)ccc1-c1cccc(F)c1F.Cl` (stereo not drawn) [Example 28] yielded an ED50 (peripheral lymphocytes) of under 1 mg/kg.
`Cc1cc(-c2nc(-c3ccc4c(c3)CCC4NC3CC(C(=O)O)C3)no2)ccc1-c1cccc(F)c1.Cl` (stereo not drawn) [Example 4] showed an ED50 (peripheral lymphocytes) of under 1 mg/kg.
In the case of `CCCCCCCCc1ccc(CCC(N)(CO)CO)cc1` [FTY720], the “side effect after administration” value [1] is listed as “bradycardia is found after administration”.
`Cc1cc(-c2nc(-c3ccc4c(c3)CCC4NC3CC(C(=O)O)C3)no2)ccc1-c1cc(F)ccc1F.Cl` (stereo not drawn) [Example 29] gave an ED50 (peripheral lymphocytes) of under 1 mg/kg.
`Cc1cc(-c2nc(-c3ccc4c(c3)CCC4NC3CC(C(=O)O)C3)no2)c(F)cc1-c1cccc(C(F)(F)F)c1C(F)(F)F.Cl` (stereo not drawn) [Example 48] showed an ED50 (peripheral lymphocytes) of under 1 mg/kg.
With `Cc1cc(-c2nc(-c3ccc4c(c3)CCC4NC3CC(C(=O)O)C3)no2)c(F)cc1-c1cccc(F)c1F.Cl` (stereo not drawn) [Example 32] the ED50 (peripheral lymphocytes) was under 1 mg/kg.
In the case of `CCCCCCCCCCCCC/C=C/[C@@H](O)[C@@H](N)COP(=O)(O)O` [sphingosine 1-phosphate], the “effect on heart rate” value [2] is listed as “decreases the heart rate”.
For `CSc1ccccc1-c1ccc(-c2nc(-c3ccc4c(c3)CN([C@H]3C[C@H](C(=O)O)C3)C4)no2)cc1C` [Example 10], the EC50 (human S1P1) was under 10 nM.
`Cc1cc(-c2nc(-c3ccc4c(c3)CCC4N[C@H]3C[C@H](C(=O)O)C3)no2)ccc1-c1cc(F)ccc1F` (stereo partly drawn) [Example 29] showed an EC50 (human S1P1) of under 10 nM.
For `Cc1cc(-c2nc(-c3ccc4c(c3)CCC4N[C@H]3C[C@H](C(=O)O)C3)no2)c(F)cc1-c1cccc(C(F)(F)F)c1F` (stereo partly drawn) [Example 41], the EC50 (human S1P1) was under 10 nM.
Work on `Cc1cc(-c2nc(-c3ccc4c(c3)CCC4N[C@H]3C[C@H](C(=O)O)C3)no2)ccc1-c1cc(C(F)(F)F)ccc1F` (stereo partly drawn) [Example 36] yielded an EC50 (human S1P1) of under 10 nM.
Work on `Cc1cc(-c2nc(-c3ccc4c(c3)CCC4N[C@H]3C[C@H](C(=O)O)C3)no2)c(F)cc1-c1ccoc1` (stereo partly drawn) [Example 13] yielded an EC50 (human S1P1) of under 10 nM.
Molecule `Cc1cc(-c2nc(-c3ccc4c(c3)CCC4N[C@H]3C[C@H](C(=O)O)C3)no2)ccc1-c1cccc(C)c1F` (stereo partly drawn) [Example 37] has an EC50 (human S1P1) of under 10 nM.
In the case of `Cc1cc(-c2nc(-c3ccc4c(c3)CCC4N[C@H]3C[C@H](C(=O)O)C3)no2)ccc1-c1ccccc1C(F)(F)F` (stereo partly drawn) [Example 21], the EC50 (human S1P1) is reported as under 10 nM.
`O=C(O)[C@H]1C[C@H](N2Cc3ccc(-c4noc(-c5ccc(-c6ccccc6)c(Cl)c5)n4)cc3C2)C1` [Example 67] gave an EC50 (human S1P1) of under 10 nM.
`CSc1ccccc1-c1ccc(-c2nc(-c3ccc4c(c3)CCC4N[C@H]3C[C@H](C(=O)O)C3)no2)cc1C` (mixture of isomers) [Example 6, 1,3-Trans-3-(5-(5-(2-methyl-2′-methylthiobiphenyl-4-yl)-1,2,4-oxadiazol-3-yl)-2,3-dihydro-1H-inden-1-ylamino)cyclobutane carboxylic acid hydrochloric acid salt] gave an EC50 (human S1P1) of under 10 nM.
For `Cc1cc(-c2nc(-c3ccc4c(c3)CCC4N[C@H]3C[C@H](C(=O)O)C3)no2)ccc1-c1cscc1C` (stereo partly drawn) [Example 25], the EC50 (human S1P1) was under 10 nM.
Work on `Cc1cc(-c2nc(-c3ccc4c(c3)CN([C@H]3C[C@H](C(=O)O)C3)C4)no2)ccc1-c1cccc(C(F)(F)F)c1F` [Example 92] yielded an EC50 (human S1P1) of under 10 nM.
`Cc1cc(-c2nc(-c3ccc4c(c3)CCC4N[C@H]3C[C@H](C(=O)O)C3)no2)ccc1-c1ccccc1C#N` (stereo partly drawn) [Example 59] showed an EC50 (human S1P1) of under 10 nM.
For `Cc1cc(-c2nc(-c3ccc4c(c3)CCC4N[C@H]3C[C@H](C(=O)O)C3)no2)ccc1-c1ccccc1.Cl` (stereo partly drawn) [Example 1, 1,3-Trans-3-(5-(5-(2-methylbiphenyl-4-yl)-1,2,4-oxadiazol-3-yl)-2,3-dihydro-1H-inden-1-ylamino)cyclobutanecarboxylic acid hydrochloride salt], the “ED50 (dosage required to reduce the swelling of sole of the rear left foot by 50%)” value [3] was “less than 1 mg/kg”.
For `Cc1cc(-c2nc(-c3ccc4c(c3)CCC4N[C@H]3C[C@H](C(=O)O)C3)no2)ccc1-c1cc(F)ccc1C#N` (stereo partly drawn) [Example 65], the EC50 (human S1P1) was under 10 nM.

Source: US20090298894A1, “AMINO ACID COMPOUNDS” (Asahi Kasei Pharma Corporation, priority 2008, published 2009)
